Experiments:
[1] = 14C mescaline injected into developing rats; especially in adult animals; cited from earlier work
[2] = 14C labelled psilocybin, animals; cited from earlier work

CCCCCCCC(=O)Oc1ccc2[nH]cc(CCN(C)C)c2c1
melting point: 48.3 to 50.2 °C

COc1cc(CCN)cc(OC)c1OC [mescaline, 3,4,5-trimethoxyphenethylamine]
permeability of the BBB to mescaline [1]: nearly impermeable

CN(C)CCc1c[nH]c2cccc(OP(=O)(O)O)c12 [psilocybin]
absorption following oral administration [2]: < 50%
